system: RAW264.7; assay: Inhibition of LPS-induced NO production in mouse RAW264.7 cells at 50 uM after 24 hrs by Griess assay; assay type: functional; settings: RAW264.7, 24 h

Row | SMILES | inhibition at 50 µM [%]
1 | C=C1[C@H]2C[C@H]2[C@@]2(C)[C@H]1[C@@H](OC(C)=O)C1=C(C)C(=O)O[C@@]13C1=C4[C@](C)([C@@H]5C[C@@H]5[C@@]4(O)C[C@H]32)[C@@H](O)C(=O)/C1=C(/C)C(=O)OC | < 50
2 | C=C1[C@H]2C[C@H]2[C@]2(C)[C@@H]3C[C@@]4(OO)C5=C(/C(=C(\C)C(=O)OC)C(=O)[C@H](O)[C@@]5(C)[C@@H]5C[C@@H]54)[C@@]34OC(=O)C(C)=C4C[C@@H]12 | < 50
3 | C=C1[C@H]2C[C@H]2[C@]2(C)[C@@H]3C[C@@]4(O)C5=C(C6=C(C)C(=O)O[C@]6(OC)[C@H](O)[C@@]5(C)[C@@H]5C[C@@H]54)[C@@]34OC(=O)C(C)=C4C[C@@H]12 | < 50
4 | C=C1[C@H]2C[C@H]2[C@]2(C)[C@@H]3C[C@@]4(O)C5=C(C6=C(C)C(=O)O[C@]6(O)[C@H](O)[C@@]5(C)[C@@H]5C[C@@H]54)[C@@]34OC(=O)C(C)=C4C[C@@H]12 | < 50

system: RAW264.7; assay: Inhibition of LPS-induced NO production in mouse RAW264.7 cells after 24 hrs by Griess assay; assay type: functional, cell-based; settings: RAW264.7, 24 h

Row | IC50 [µM] | SMILES
5 | 25.1 | C=C1[C@H]2C[C@H]2[C@@]2(C)[C@H]1[C@@H](OC(C)=O)C1=C(C)C(=O)O[C@@]13[C@@H]1C4=C(C[C@H]32)[C@H]2C[C@H]2[C@]4(C)[C@@H](O)C(=O)/C1=C(/C)C(=O)OC
6 | 6.91 | COC(=O)/C(C)=C1\C(=O)[C@H](O)[C@]2(C)C3=C(C[C@@H]4[C@]5(OC(=O)C(CO)=C5C[C@H]5[C@H](COC(C)=O)[C@H]6C[C@H]6[C@]45C)[C@H]31)[C@H]1C[C@H]12
7 | 24.4 | C=C1[C@H]2C[C@H]2[C@]2(C)[C@@H]3CC4=C5[C@H](/C(=C(\C)C(=O)OC)C(=O)C[C@@]5(C)[C@@H]5C[C@H]45)[C@@]34OC(=O)C(C)=C4C[C@@H]12
8 | 26.3 | C=C1[C@H]2C[C@H]2[C@]2(C)[C@@H]3CC4=C5[C@H](C(C(C)C(=O)OC)=C(O)C(=O)[C@@]5(C)[C@@H]5C[C@H]45)[C@@]34OC(=O)C(C)=C4C[C@@H]12 (some centres not stated)
9 | 43.2 | CO[C@]12OC(=O)C(C)=C1C1=C3[C@](C)([C@@H]4C[C@@H]4[C@@]3(O)C[C@@H]3[C@]14OC(=O)C1=C4C[C@H]4[C@](O)(COC(=O)/C(C)=C/COC(=O)CCC(=O)OC1)[C@H]1C[C@H]1[C@]34C)[C@H]2O
10 | 46.5 | C=C1[C@H]2C[C@H]2[C@]2(C)[C@@H]3[C@@H](O)C4=C5[C@H](/C(=C(\C)C(=O)OC)C(=O)[C@H](O)[C@@]5(C)[C@@H]5C[C@H]45)[C@@]34OC(=O)C(C)=C4C[C@@H]12
11 | 11.6 | C/C=C(\C)C(=O)OC[C@]1(O)[C@H]2C[C@H]2[C@]2(C)[C@@H]3CC4=C5[C@H](/C(=C(\C)C(=O)OC)C(=O)[C@H](O)[C@@]5(C)[C@@H]5C[C@H]45)[C@@]34OC(=O)C(COC(=O)CCC(=O)O)=C4C[C@@H]12
12 | 39.4 | C=C1[C@H]2C[C@H]2[C@]2(C)[C@@H]3C[C@@]4(O)C5=C(C6=C(C)C(=O)O[C@]6(OCCCC)[C@H](O)[C@@]5(C)[C@@H]5C[C@@H]54)[C@@]34OC(=O)C(C)=C4C[C@@H]12

Row | SMILES | IC50 [µM]
13 | C=C1[C@H]2C[C@H]2[C@]2(C)[C@@H]3CC4=C5[C@H](/C(=C(\C)C(=O)OC)C(=O)[C@H](O)[C@@]5(C)[C@@H]5C[C@H]45)[C@@]34OC(=O)C(C)=C4C[C@@H]12 | 27
14 | COC(=O)/C(C)=C1\C(=O)[C@H](O)[C@]2(C)C3=C(C[C@@H]4[C@]5(OC(=O)C6=C5C[C@H]5[C@](O)(COC(=O)/C=C(\C)COC(=O)CCC(=O)OC6)[C@H]6C[C@H]6[C@]45C)[C@H]31)[C@H]1C[C@H]12 [SHIZUKAOL F] | 21
15 | COC(=O)/C(C)=C1\C(=O)[C@H](O)[C@]2(C)C3=C(C[C@@H]4[C@]5(OC(=O)C6=C5C[C@H]5[C@](O)(COC(=O)/C(C)=C/COC(=O)CCC(=O)OC6)[C@H]6C[C@H]6[C@]45C)[C@H]31)[C@H]1C[C@H]12 [SHIZUKAOL B] | 14.8
16 | O=c1c(O)c(-c2ccc(O)c(O)c2)oc2cc(O)cc(O)c12 [QUERCETIN] | 15.9
17 | C=C1[C@H]2C[C@H]2[C@]2(C)[C@@H]3CC4=C5[C@H](/C(=C(/C)C(=O)OC)C(=O)[C@H](O)[C@@]5(C)[C@@H]5C[C@H]45)[C@@]34OC(=O)C(C)=C4C[C@@H]12 | 26.5

Source: ChEMBL document CHEMBL3808341, “Natural nitric oxide (NO) inhibitors from Chloranthus japonicus” (Bioorg Med Chem Lett, 2016)
